Laboratory results from patent EP4567103A1, “USE OF PYRUVATE FOR POTENTIATING NK CELLS” (LVMH Recherche, priority 2023, dated 2025).
pEC50: −log10 of the molar value.

Tests used:
NK cells [1] = assay: Intracellular ATP concentration in NK cells, luciferase-based assay (CellTiter-Glo 2.0); type: cell-based; conditions: Homo sapiens; isolated NK cells, 30,000 cells per well, pyruvate 0.01 to 10mM, 4 hours; read-out: EC50 for the intracellular ATP production (the pyruvate concentration at which the ATP production is half-maximal)
Protocol: (§1) Peripheral blood samples from healthy subjects were obtained from the French blood bank (Etablissement Français du sang, Lyon, France).
(§2) Human PBMCs were separated from peripheral blood by Ficoll® gradient centrifugation (Eurobio Laboratoires & AbCys) at room temperature. The PBMCs were kept at 4°C in complete medium overnight.
NK cells (CD56^Dim CD3) were isolated using an NK Cell Isolation Kit (Miltenyi Biotec) following the manufacturer's instructions, and then sorted (BD FACS ARIA II, purity > 99%, the following mAbs from eBioscience, BD Biosciences, Biolegend or Cell Signalling Technology were used: anti-CD56 (NCAM16.2), and anti-CD3 (UCHT1)). Freshly sorted NK cells were left to recover from the sorting overnight at 37°C with a non-activating dose of IL-15 (1 ng/ml, Peprotech) in RPMI 1640 medium additionally containing 10% FBS, 2mM HEPES, 2mM glutamine, 1mM pyruvate (sodium pyruvate) and 1% penicillin/streptomycin (HCL Technologies). […]
The intracellular ATP concentration at each concentration of pyruvate was measured using a luciferase-based assay following the manufacturer's instructions (CellTiter-Glo® 2.0 Cell Viability Assay and NAD/NADH-Glo Assay, Promega Corporation, Madison, WI). Luminescence was measured using a Tristar luminometer (Berthold).

NK cells [2] = assay: Cytotoxicity of NK cells against K562 NanoLuc-expressing target cells (bioluminescence lysis assay); type: cell-based; conditions: Homo sapiens; pyruvate 0.01 to 10 mM for 3 hours, then co-cultured for 4 hours with K562 NanoLuc-expressing target cells; read-out: EC50 for the cytotoxicity of the NK cells (the pyruvate concentration at which the cytotoxicity is half-maximal)
Protocol: as §1, §2
NK cells (CD56^Dim CD3) were isolated using an NK Cell Isolation Kit (Miltenyi Biotec) following the manufacturer's instructions, and then sorted (BD FACS ARIA II, purity > 99%, the following mAbs from eBioscience, BD Biosciences, Biolegend or Cell Signalling Technology were used: anti-CD56 (NCAM16.2), and anti-CD3 (UCHT1)). […]
NK cells were prepared as in Example 1, and were cultured in the absence or in the presence of pyruvate at varying concentrations (0.01 to 10 mM) for 3 hours and then co-cultured for 4 hours with K562 NanoLuc®-expressing target cells. The supernatant was collected and bioluminescence was measured using a Tristar Instrument luminometer (Berthold) after addition of Furimazin (the substrate of NanoLuc). The percentage of cell lysis were calculated as explained in Hayek, S. et al., SLAS Discov. […]

`CC(=O)C(=O)O` [pyruvate] showed a pEC50 (NK cells [1]) of 3.30 and a pEC50 (NK cells [2]) of 3.59.
